One may read the IC50 as the point on the concentration scale where inhibition reaches its midpoint.

Molecules are shown by their SMILES. Values joined by “and” are separate entries in the source; they are usually repeats but may differ in a detail not shown here. Identical values can stand only once.

38 compounds from patent US20080287398A1, “COLD MENTHOL RECEPTOR-1 ANTAGONISTS” (priority 2007, published 2008) can be followed below.

In the experiment the target is T1, canine TRPM8 (Canis lupus familiaris, UniProt Q1A7N1).
T1 construct: expressed in transfected cells
Briefly: In vitro canine TRPM8 functional assay (Ca2+-sensitive dye, FLIPR/FDSS, icilin activation). The experiment is classed as cell-based. To be noted: HEK293 cells expressing canine TRPM8, icilin activation; for % I (1 μM): 1 μM compound; for IC50: eight-point dose-response, read-out: IC50; for % I (0.5 μM): 0.5 μM compound. The method, then:
The functional activity of compounds of Formula (I) was determined by measuring changes in intracellular calcium concentration using a Ca^2+-sensitive fluorescent dye. The changes in fluorescent signal were monitored by a fluorescence plate reader, either a FLIPR™ (Molecular Devices) or FDSS (Hamamatsu).
HEK293 cells stably expressing canine TRPM8 were routinely grown as monolayers in Dulbecco's minimum essential medium supplemented with 10% FBS, 1 mM L-glutamine, 100 units/mL penicillin, 100 ug/mL streptomycin and 400 μg/mL G418. Cells were maintained in 5% CO2 at 37° C. At 24 hrs prior to assay, cells were seeded in clear-base poly-D-lysine coated 384-well plates (BD Biosciences, NJ, USA) at a density of 5,000 cells per well in culture medium and grown overnight in 5% CO2 at 37° C. On assay day, growth media was removed and cells were loaded with Calcium 3 Dye (Molecular Devices) for 35 min at 37° C., under 5% CO2 and then for 25 min at room temperature and atmosphere. Subsequently, cells were tested for agonist-induced increases in intracellular Ca^2+ levels using FLIPR™ or FDSS. Cells were challenged with a compound of Formula (I) (at varying concentrations) and intracellular Ca^2+ was measured for 5 min prior to the addition of icilin to all wells to achieve a final concentration which produces approximately an 80% maximal response.
Basal FI was subtracted prior to normalizing data to percent of maximal response. Curves were generated using the average of quadruplicate wells for each data point, were analyzed using nonlinear regression of either sigmoidal dose response or sigmoidal dose response (variable slope). Finally, the EC50 and IC50 values were calculated with the best-fit dose curve determined by GraphPad Prism.

T1 sequence (Q1A7N1 1-1104): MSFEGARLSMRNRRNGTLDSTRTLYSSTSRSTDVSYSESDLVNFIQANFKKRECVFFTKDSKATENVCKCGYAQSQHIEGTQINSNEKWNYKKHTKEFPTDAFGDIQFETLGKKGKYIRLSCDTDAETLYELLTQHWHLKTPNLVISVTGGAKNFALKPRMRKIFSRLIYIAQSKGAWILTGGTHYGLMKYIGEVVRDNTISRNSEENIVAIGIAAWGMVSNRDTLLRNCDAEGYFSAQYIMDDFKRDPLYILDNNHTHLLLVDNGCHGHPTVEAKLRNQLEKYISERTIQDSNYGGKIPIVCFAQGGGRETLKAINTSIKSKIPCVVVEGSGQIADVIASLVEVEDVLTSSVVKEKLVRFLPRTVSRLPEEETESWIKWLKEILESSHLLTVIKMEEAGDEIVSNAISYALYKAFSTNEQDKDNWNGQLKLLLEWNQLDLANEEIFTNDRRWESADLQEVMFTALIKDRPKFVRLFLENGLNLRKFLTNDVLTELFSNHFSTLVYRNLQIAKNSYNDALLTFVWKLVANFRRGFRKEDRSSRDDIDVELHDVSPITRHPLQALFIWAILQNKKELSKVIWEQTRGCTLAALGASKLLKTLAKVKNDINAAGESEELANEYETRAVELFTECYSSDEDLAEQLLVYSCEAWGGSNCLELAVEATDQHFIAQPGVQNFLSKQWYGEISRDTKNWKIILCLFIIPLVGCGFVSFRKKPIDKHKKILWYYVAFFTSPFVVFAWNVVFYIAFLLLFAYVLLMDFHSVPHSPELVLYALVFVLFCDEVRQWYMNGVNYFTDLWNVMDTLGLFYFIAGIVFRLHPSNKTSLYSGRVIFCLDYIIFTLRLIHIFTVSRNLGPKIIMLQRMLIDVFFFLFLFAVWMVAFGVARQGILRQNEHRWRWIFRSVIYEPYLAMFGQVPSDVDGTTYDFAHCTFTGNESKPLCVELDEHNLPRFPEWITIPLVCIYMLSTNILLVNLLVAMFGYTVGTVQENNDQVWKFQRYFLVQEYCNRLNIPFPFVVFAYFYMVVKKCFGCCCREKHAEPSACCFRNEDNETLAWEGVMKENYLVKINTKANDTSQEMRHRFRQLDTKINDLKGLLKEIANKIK

Take `CCOP(=O)(Cc1cc2ccccc2s1)OCc1ccccc1Cl` (racemic) [Cpd 105]: the “% I (1 μM)” value was 48% and the IC50 was 1.01 µM. For the same compound, the “% I (5 μM)” value (5 μM compound) came out at 100%.
On to `CCOP(=O)(OCC)C(Cc1cccc(Cl)c1F)c1sc2ccccc2c1Br` (racemic) [Cpd 143], for which the “% I (0.5 μM)” value was found to be 101% and the half-inhibitory concentration (IC50) turned out to be 0.067 µM.
As to `CCOP(=O)(OCC)C(Cc1ccc(C(F)(F)F)c(F)c1)c1sc2ccccc2c1Br` (racemic) [Cpd 144], the “% I (0.5 μM)” value is recorded as 101% and the IC50 is 0.058 µM.
With `CCOP(=O)(OCC)C(Cc1cccc(OC(F)(F)F)c1)c1sc2ccccc2c1Br` (racemic) [Cpd 145], the “% I (0.5 μM)” value was 103% and 102%; the IC50 is 0.119 µM and 0.116 µM.
For `CCOP(=O)(OCC)C(Cc1cc(C(F)(F)F)ccc1F)c1sc2ccccc2c1Br` (racemic) [Cpd 146], the “% I (0.5 μM)” value was found to be 103% and the half-inhibitory concentration (IC50) was determined as 0.1 µM.
In the case of `CCOP(=O)(OCC)C(Cc1ccccc1Cl)c1sc2ccccc2c1Br` (racemic) [Cpd 147], the “% I (0.5 μM)” value was found to be 103% and the IC50 amounted to 0.125 µM.
For the compound `CCOP(=O)(OCC)C(Cc1cc(C(F)(F)F)ccc1Cl)c1sc2ccccc2c1Br` (racemic) [Cpd 148], the “% I (0.5 μM)” value is 103% and the IC50 was found to be 0.172 µM.
For the compound `CCOP(=O)(OCC)C(Cc1ccc(OC(F)(F)F)c(Cl)c1)c1sc2ccccc2c1Br` (racemic) [Cpd 149], the “% I (0.5 μM)” value worked out at 103% and the IC50 was determined as 0.06 µM.
As for `CCOP(=O)(OCC)C(Cc1ccc(C(F)(F)F)cc1F)c1sc2ccccc2c1Br` (racemic) [Cpd 150], the “% I (0.5 μM)” value was determined as 103% and the IC50 amounted to 0.09 µM.
Take `CCOP(=O)(OCC)C(Cc1cccc(C(F)(F)F)c1Cl)c1sc2ccccc2c1Br` (racemic) [Cpd 151]: the “% I (0.5 μM)” value was 103% and the half-inhibitory concentration (IC50) was 0.12 µM.
In the case of `CCOP(=O)(OCC)C(Cc1ccc(OC)c(C(F)(F)F)c1)c1sc2ccccc2c1Br` (racemic) [Cpd 152], the “% I (0.5 μM)” value is 102% and 92%; the half-maximal inhibitory concentration (IC50) is 0.054 µM and 0.05 µM.
`CCOP(=O)(OCC)C(Cc1ccc(SC(F)(F)F)cc1)c1sc2ccccc2c1Br` (racemic) [Cpd 153]: the “% I (0.5 μM)” value is listed as 103% and the IC50 was determined as 0.043 µM.
As for `CCOP(=O)(OCC)C(Cc1ccc(C(F)(F)F)cc1)c1sc2ccccc2c1Br` (racemic) [Cpd 154], the “% I (0.5 μM)” value is given as 103% and the IC50 was determined as 0.027 µM.
`COc1cc(CC(c2sc3ccccc3c2Br)P(=O)(OC(C)C)OC(C)C)ccc1F` (racemic) [Cpd 157]: the “% I (0.5 μM)” value is 103% and 98%.
With `CCOP(=O)(OCC)C(Cc1ccc(OC)c(F)c1)c1sc2ccccc2c1Br` (racemic) [Cpd 158], the “% I (0.5 μM)” value is reported as 101% and the half-maximal inhibitory concentration (IC50) is 0.059 µM.
As to `COc1ccc(CC(c2sc3ccccc3c2Br)P(=O)(OC(C)C)OC(C)C)cc1F` (racemic) [Cpd 159], the “% I (0.5 μM)” value came to 103% and the IC50 stood at 0.036 µM.
Consider `CCOP(=O)(OCC)C(Cc1c(F)c(F)c(OC)c(F)c1F)c1sc2ccccc2c1Br` (racemic) [Cpd 160], for which the “% I (0.5 μM)” value is listed as 87% and the IC50 stood at 0.06 µM.
Regarding `COc1c(F)c(F)c(CC(c2sc3ccccc3c2Br)P(=O)(OC(C)C)OC(C)C)c(F)c1F` (racemic) [Cpd 161], the “% I (0.5 μM)” value is 103% and the concentration for half-maximal inhibition (IC50) is 0.019 µM.
As for `CCOP(=O)(OCC)C(Cc1cccc(OC)c1F)c1sc2ccccc2c1Br` (racemic) [Cpd 162], the “% I (0.5 μM)” value came out at 103% and the IC50 came to 0.032 µM.
`COc1ccc(CC(c2sc3ccccc3c2Br)P(=O)(OC(C)C)OC(C)C)c(F)c1` (racemic) [Cpd 163]: the “% I (0.5 μM)” value came out at 103% and the IC50 is 0.02 µM.
`CCOP(=O)(OCC)C(Cc1cc(OC)c(Cl)cc1F)c1sc2ccccc2c1Br` (racemic) [Cpd 164]: the “% I (0.5 μM)” value amounted to 94% and the concentration for half-maximal inhibition (IC50) was determined as 0.082 µM.
For the compound `COc1cc(CC(c2sc3ccccc3c2Br)P(=O)(OC(C)C)OC(C)C)c(F)cc1Cl` (racemic) [Cpd 165], the “% I (0.5 μM)” value is 102% and the half-inhibitory concentration (IC50) worked out at 0.086 µM.
For `CC(C)OP(=O)(OC(C)C)C(Cc1cccc(Cl)c1)c1sc2ccccc2c1Br` (racemic) [Cpd 166], the “% I (0.5 μM)” value turned out to be 102%; the “% I (1 μM)” value is given as 103%; the IC50 was 0.018 µM and 0.014 µM.
Take `CC(C)OP(=O)(OC(C)C)C(Cc1ccc(Cl)c(C(F)(F)F)c1)c1sc2ccccc2c1Cl` (racemic) [Cpd 167]: the “% I (0.5 μM)” value is recorded as 104% and the IC50 was 0.097 µM.
On the same counts, the results for `CC(C)OP(=O)(OC(C)C)C(Cc1cccc(C(F)(F)F)c1F)c1sc2ccccc2c1Cl` (racemic) [Cpd 168] are 104% and 0.076 µM.
`CC(C)OP(=O)(OC(C)C)C(Cc1cc(F)cc(C(F)(F)F)c1)c1sc2ccccc2c1Cl` (racemic) [Cpd 169]: the “% I (0.5 μM)” value was 104% and the IC50 is 0.096 µM.
As to `CC(C)OP(=O)(OC(C)C)C(Cc1cccc(C(F)(F)F)c1)c1sc2ccccc2c1Cl` (racemic) [Cpd 170], the “% I (0.5 μM)” value is recorded as 103% and the half-inhibitory concentration (IC50) was found to be 0.073 µM.
As for `CC(C)OP(=O)(OC(C)C)C(Cc1cc(C(F)(F)F)cc(C(F)(F)F)c1)c1sc2ccccc2c1Cl` (racemic) [Cpd 171], the “% I (0.5 μM)” value was 95% and the IC50 amounted to 0.221 µM.
For `CC(C)OP(=O)(OC(C)C)C(Cc1cc(C(F)(F)F)ccc1F)c1sc2ccccc2c1Cl` (racemic) [Cpd 172] the same measures were 104% and 0.105 µM.
Consider `CC(C)OP(=O)(OC(C)C)C(Cc1ccccc1C(F)(F)F)c1sc2ccccc2c1Cl` (racemic) [Cpd 173], for which the “% I (0.5 μM)” value worked out at 103% and the IC50 turned out to be 0.14 µM.
As for `CC(C)OP(=O)(OC(C)C)C(Cc1ccc(F)c(F)c1)c1oc2cccc(F)c2c1Br` (racemic) [Cpd 205], the “% I (1 μM)” value came out at 101% and the concentration for half-maximal inhibition (IC50) turned out to be 0.05 µM.
On to `CCOP(=O)(OCC)C(Cc1ccc(F)c(F)c1)c1oc2cccc(F)c2c1Br` (racemic) [Cpd 206], for which the “% I (1 μM)” value is on record as 100% and the IC50 worked out at 0.098 µM.
On to `CC(C)OP(=O)(OC(C)C)C(Cc1ccc(F)c(F)c1)c1sc2ncccc2c1Br` (racemic) [Cpd 207], for which the “% I (0.5 μM)” value stood at 99% and the IC50 was 0.051 µM.
`CCOP(=O)(OCC)C(Cc1ccc(F)c(F)c1)c1sc2ccccc2c1-c1ccsc1` (racemic) [Cpd 208]: the “% I (0.5 μM)” value is 104% and the IC50 is 0.104 µM.
Regarding `COCCOCCOP(=O)(OCCOCCOC)C(Cc1ccc(F)c(F)c1)c1sc2ccccc2c1Br` (racemic) [Cpd 210], the “% I (0.5 μM)” value is 62%.
`CC(C)CCOP(=O)(OCCC(C)C)C(Cc1ccc(F)c(F)c1)c1sc2ccccc2c1Br` (racemic) [Cpd 211]: the “% I (0.5 μM)” value was found to be 97% and the IC50 was 0.095 µM.
In the case of `CC(=O)OCCOP(=O)(OCCOC(C)=O)C(Cc1ccc(F)c(F)c1)c1sc2ccccc2c1Br` (racemic) [Cpd 213], the “% I (0.5 μM)” value worked out at 100% and the concentration for half-maximal inhibition (IC50) amounted to 0.202 µM.
As to `CCOP(=O)(OCC)C(Cc1ccc(F)c(F)c1)c1sc2ccccc2c1-c1ccccc1O` (racemic) [Cpd 215], the “% I (0.5 μM)” value was 101% and the IC50 was found to be 0.085 µM.
